Measured values as given in paper PMC4273223, “(2R,1'S,2'R)- and (2S,1'S,2'R)-3-[2-Mono(di,tri)fluoromethylcyclopropyl]alanines and their incorporation into hormaomycin analogues” (Beilstein Journal of Organic Chemistry, 2014).
In brackets after ≈: the same amount, converted by molar mass. Counter-ions that a name gives are not always drawn. Starred links: 1 amine or outer side, 2 acyl side, 3 side chain; linkers in the order of their positions; H or OH if unused. Positions of bridges follow the written chain, without caps; N, C: chain ends. Non-standard residues stand in square brackets, D forms with d. Residues, ends and D or L forms follow the SMILES beside them. *: point of attachment. X1 = O=C([C@@H](C[C@@H]1C[C@H]1C(F)(F)F)N[*:1])[*:2]; X2 = C/C=C\[C@H]1C[C@@H](C(=O)[*:2])N([*:1])C1; Phe(3R-Me) = C[C@H](c1ccccc1)[C@H](N)C(=O)O; d(aThr) = C[C@@H](O)[C@@H](N)C(=O)O; Tfa = O=C(C(F)(F)F)*

How the values were obtained:
[1] = tested on: Plasmodium falciparum strain K1; assay: microbe, parasite or virus in culture
Experimental: (§1) The syntheses of hormaomycin (1) itself and of its all-peptide aza-analogues 60 and 61 (Figure 6) as developed by Zlatopolskiy et al., were reproduced in order to provide large enough quantities for biological tests of their antimalarial activities.
(§2) In vitro antiprotozoal activity assays: The in vitro activities against the protozoan parasites L. donovani and P. falciparum as well as cytotoxicity assessments against L6 cells were determined as reported elsewhere.

[2] = tested on: Leishmania donovani strain MHOM-ET-67/L82; assay: microbe, parasite or virus in culture; conditions: for activity against L. donovani (in words): in vitro
Experimental: as §1, §2

coryneform bacteria = tested on: coryneform bacteria; set-up: method as in doi:10.1002/hlca.19890720303, doi:10.1002/ange.19901020122; conditions: cited from earlier work
[3] = set-up: method as in PMID 12760691; conditions: cited from earlier work
L6 cells = assay: cells
Experimental: as §2

SMILES	IC50 against Leishmania donovani strain MHOM-ET-67/L82 [2]	IC50 against Plasmodium falciparum strain K1 [1]	IC50 against L6 cells (L6 cells)	further results
CCN(CC)CCCC(C)Nc1ccnc2cc(Cl)ccc12 (stereo not shown) [Chloroquine, reference compound]				IC50 ([1]; Plasmodium falciparum, K1, read-out: IC50 against Plasmodium falciparum strain K1): 0.089 µg/mL (≈ 0.278 µM)
C/C=C\[C@H]1C[C@H]2C(=O)O[C@H](C)[C@@H](NC(=O)[C@H](C[C@@H]3C[C@H]3[N+](=O)[O-])NC(=O)c3ccc(Cl)n3O)C(=O)N[C@@H]([C@H](C)c3ccccc3)C(=O)N[C@H](C[C@@H]3C[C@H]3[N+](=O)[O-])C(=O)N[C@@H]([C@H](C)c3ccccc3)C(=O)N[C@@H]([C@@H](C)CC)C(=O)N2C1 [Compound 1, hormaomycin]				activity against L. donovani (in words) [2]: showed an activity against L. donovani; antimalarial activity (in words) ([1]; in vitro): good and selective antimalarial activities; inhibitory effect on coryneform bacteria (in words) (coryneform bacteria): exceptionally selective inhibitory effect; antimalarial activity (in words) [3]: interesting antimalarial activity
C/C=C\[C@H]1C[C@H]2C(=O)O[C@H](C)[C@@H](NC(=O)[C@H](C[C@@H]3C[C@H]3C(F)(F)F)NC(=O)c3ccc(Cl)n3O)C(=O)N[C@@H]([C@H](C)c3ccccc3)C(=O)N[C@H](C[C@@H]3C[C@H]3C(F)(F)F)C(=O)N[C@@H]([C@H](C)c3ccccc3)C(=O)N[C@@H]([C@@H](C)CC)C(=O)N2C1 [Compound 8a]	0.205 µg/mL (≈ 0.174 µM)	0.183 µg/mL (≈ 0.156 µM)	40 µg/mL (≈ 34 µM)	activity against L. donovani (in words) [2]: showed an activity against L. donovani; activity against L. donovani lower than that of hormaomycin (1) ([2]; relative to hormaomycin (1)): 37%
C/C=C\[C@H]1C[C@H]2C(=O)O[C@H](C)[C@@H](NC(=O)OCc3ccc(C)cc3)C(=O)N[C@@H]([C@H](C)c3ccccc3)C(=O)N[C@H](C[C@@H]3C[C@H]3C(F)(F)F)C(=O)N[C@@H]([C@H](C)c3ccccc3)C(=O)N[C@@H]([C@@H](C)CC)C(=O)N2C1 [Compound 52a]	2.13 µg/mL (≈ 2.13 µM)	0.042 µg/mL (≈ 0.042 µM)	>90 µg/mL	
C/C=C\[C@H]1C[C@H]2C(=O)O[C@H](C)[C@@H](NC(C)=O)C(=O)N[C@@H]([C@H](C)c3ccccc3)C(=O)N[C@H](C[C@@H]3C[C@H]3C(F)(F)F)C(=O)N[C@@H]([C@H](C)c3ccccc3)C(=O)N[C@@H]([C@@H](C)CC)C(=O)N2C1 [Compound 58] (Ac-[d(aThr)][Phe(3R-Me)][X1][Phe(3R-Me)]I[X2]; ester 1-C)	1.73 µg/mL (≈ 1.93 µM)	0.151 µg/mL (≈ 0.169 µM)	>90 µg/mL	
C/C=C\[C@H]1C[C@H]2C(=O)O[C@H](C)[C@@H](NC(=O)C(F)(F)F)C(=O)N[C@@H]([C@H](C)c3ccccc3)C(=O)N[C@H](C[C@@H]3C[C@H]3C(F)(F)F)C(=O)N[C@@H]([C@H](C)c3ccccc3)C(=O)N[C@@H]([C@@H](C)CC)C(=O)N2C1 [Compound 59] (Tfa-[d(aThr)][Phe(3R-Me)][X1][Phe(3R-Me)]I[X2]; ester 1-C)	2.37 µg/mL	0.265 µg/mL	>90 µg/mL	
C/C=C\[C@H]1C[C@H]2C(=O)NC[C@@H](NC(=O)OCc3ccc(C)cc3)C(=O)N[C@@H]([C@H](C)c3ccccc3)C(=O)N[C@H](C[C@@H]3C[C@H]3[N+](=O)[O-])C(=O)N[C@@H]([C@H](C)c3ccccc3)C(=O)N[C@@H]([C@@H](C)CC)C(=O)N2C1 [Compound 61]		0.061 µg/mL (≈ 0.0633 µM)		
CCCCCCCCCCCCCCCCOP(=O)([O-])OCC[N+](C)(C)C [Miltefosine, reference compound]				IC50 ([2]; Leishmania donovani, read-out: IC50 against Leishmania donovani strain MHOM-ET-67/L82): 0.143 µg/mL (≈ 0.351 µM)
COc1cc([C@@H]2c3cc4c(cc3[C@H](O)[C@H]3COC(=O)[C@H]23)OCO4)cc(OC)c1OC [Podophyllotoxin, reference compound]				IC50 (L6 cells; Rattus norvegicus, L6, read-out: IC50 against L6 cells): 0.006 µg/mL (≈ 0.0145 µM)
